Test results published in patent US8916558B2, “Powders for reconstitution” (Tibotec Pharmaceuticals Ltd., priority 2007, dated 2014).

Experiment: Solubility of TMC278 in water (statement)
Assay type: physicochemical
Details: free base; background statement

solubility in water: poorly soluble in water
SMILES: Cc1cc(C=CC#N)cc(C)c1Nc1ccnc(Nc2ccc(C#N)cc2)n1 [TMC278, 4-[[4-[[4-(2-cyano-ethenyl)-2,6-dimethylphenyl]-amino]-2-pyrimidinyl]-amino]-benzonitrile]
